Paper PMC5538713, “RORγt and RORα signature genes in human Th17 cells” (PLoS ONE, 2017)
Like-named read-outs stand apart in the source and are kept apart here.

What was measured:
Assay in all cases: Cerep selectivity panel
Assay type in all cases: binding
D1 (h) = molecular target: T1, D1 (h) (Homo sapiens, UniProt P21728); conditions: for inhibition at 1 µM: read-out: % Inhibition at 1µM; for inhibition at 10 µM: read-out: % Inhibition at 10µM
T1 construct: purchased Cerep
Protocol: (§1) Supplementary file pone.0181868.s003.docx: S3 Table Selectivity profile of RORγt inverse agonists A, B, C and D. Compounds were evaluated at 1 μM and 10 μM in a panel of assays against 50 receptors, ion channels and transporters (Profile service by Cerep Inc.). (DOCX) Click here for additional data file.
(§2) S3 Table. RORɣt inverse agonists A, B, C and D were evaluated at 1 µM and 10 µM in a panel of assays against 50 receptors, ion channels and transporters (Profile service by Cerep Inc.).

H1 (h) = molecular target: T2, H1 (h) (Homo sapiens, UniProt P35367); conditions: for inhibition at 10 µM: read-out: % Inhibition at 10µM
T2 construct: purchased Cerep
T2 sequence (P35367 whole entry): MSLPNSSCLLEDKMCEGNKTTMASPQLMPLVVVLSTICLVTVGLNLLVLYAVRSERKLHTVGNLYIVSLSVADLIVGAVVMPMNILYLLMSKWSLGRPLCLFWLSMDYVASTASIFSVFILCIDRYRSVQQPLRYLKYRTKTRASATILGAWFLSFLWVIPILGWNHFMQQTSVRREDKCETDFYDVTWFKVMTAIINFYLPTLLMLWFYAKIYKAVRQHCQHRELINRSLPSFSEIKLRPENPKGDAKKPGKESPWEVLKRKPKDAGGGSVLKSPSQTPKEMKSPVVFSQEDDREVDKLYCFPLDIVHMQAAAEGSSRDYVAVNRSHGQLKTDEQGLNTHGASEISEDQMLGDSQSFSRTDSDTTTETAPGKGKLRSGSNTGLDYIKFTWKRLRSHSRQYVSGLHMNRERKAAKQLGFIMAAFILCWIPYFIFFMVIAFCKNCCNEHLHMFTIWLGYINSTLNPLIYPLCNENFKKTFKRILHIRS
Protocol: as §1, §2

OP1 (h) = molecular target: T3, OP1 (h) (Homo sapiens, UniProt P41143); conditions: for inhibition at 1 µM: read-out: % Inhibition at 1µM; for inhibition at 10 µM: read-out: % Inhibition at 10µM
T3 construct: purchased Cerep
T3 sequence (P41143 whole entry): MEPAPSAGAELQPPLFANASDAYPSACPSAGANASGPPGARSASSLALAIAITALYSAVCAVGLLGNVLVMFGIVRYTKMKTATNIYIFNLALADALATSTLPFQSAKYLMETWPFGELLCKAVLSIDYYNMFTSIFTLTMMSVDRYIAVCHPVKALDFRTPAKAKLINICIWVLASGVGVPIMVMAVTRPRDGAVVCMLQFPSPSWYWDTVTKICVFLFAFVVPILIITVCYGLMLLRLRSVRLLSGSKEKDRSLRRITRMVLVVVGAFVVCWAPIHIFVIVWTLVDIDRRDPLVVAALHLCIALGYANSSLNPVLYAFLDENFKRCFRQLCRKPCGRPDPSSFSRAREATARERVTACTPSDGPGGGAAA
Protocol: as §1, §2

5HT3 (h) = molecular target: T4, 5HT3 (h) (Homo sapiens, UniProt P46098); conditions: for inhibition at 1 µM: read-out: % Inhibition at 1µM; for inhibition at 10 µM: read-out: % Inhibition at 10µM
T4 construct: purchased Cerep
T4 sequence (P46098 24-478): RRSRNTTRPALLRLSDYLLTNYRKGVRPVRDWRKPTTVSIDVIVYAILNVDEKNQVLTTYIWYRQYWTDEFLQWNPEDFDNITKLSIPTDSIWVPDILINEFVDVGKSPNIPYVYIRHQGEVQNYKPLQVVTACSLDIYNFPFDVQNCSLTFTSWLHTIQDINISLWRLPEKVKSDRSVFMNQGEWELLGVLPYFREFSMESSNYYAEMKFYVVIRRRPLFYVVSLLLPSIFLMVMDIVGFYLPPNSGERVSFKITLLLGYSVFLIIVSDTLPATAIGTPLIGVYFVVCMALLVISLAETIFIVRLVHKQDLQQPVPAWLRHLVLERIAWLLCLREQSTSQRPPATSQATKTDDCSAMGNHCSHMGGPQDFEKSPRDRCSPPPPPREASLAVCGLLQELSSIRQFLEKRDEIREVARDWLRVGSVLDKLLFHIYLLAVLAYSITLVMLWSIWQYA
Protocol: as §1, §2

V1 a (h) = molecular target: T5, V1 a (h) (Homo sapiens, UniProt P37288); conditions: for inhibition at 10 µM: read-out: % Inhibition at 10µM
T5 construct: purchased Cerep
T5 sequence (P37288 whole entry): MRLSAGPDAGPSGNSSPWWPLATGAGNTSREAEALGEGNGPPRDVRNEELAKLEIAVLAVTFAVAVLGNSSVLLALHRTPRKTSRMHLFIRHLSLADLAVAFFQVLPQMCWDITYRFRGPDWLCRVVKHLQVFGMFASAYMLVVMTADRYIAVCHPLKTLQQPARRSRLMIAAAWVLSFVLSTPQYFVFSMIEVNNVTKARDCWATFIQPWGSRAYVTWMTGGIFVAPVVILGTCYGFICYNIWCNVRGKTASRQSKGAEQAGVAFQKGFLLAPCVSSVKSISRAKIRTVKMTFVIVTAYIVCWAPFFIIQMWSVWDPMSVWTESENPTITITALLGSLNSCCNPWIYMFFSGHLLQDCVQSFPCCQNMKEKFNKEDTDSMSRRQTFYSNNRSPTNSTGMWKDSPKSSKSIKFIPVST
Protocol: as §1, §2

BK2 (h) = molecular target: T6, BK2 (h) (Homo sapiens, UniProt P30411); conditions: for inhibition at 1 µM: read-out: % Inhibition at 1µM; for inhibition at 10 µM: read-out: % Inhibition at 10µM
T6 construct: purchased Cerep
T6 sequence (P30411 1-391): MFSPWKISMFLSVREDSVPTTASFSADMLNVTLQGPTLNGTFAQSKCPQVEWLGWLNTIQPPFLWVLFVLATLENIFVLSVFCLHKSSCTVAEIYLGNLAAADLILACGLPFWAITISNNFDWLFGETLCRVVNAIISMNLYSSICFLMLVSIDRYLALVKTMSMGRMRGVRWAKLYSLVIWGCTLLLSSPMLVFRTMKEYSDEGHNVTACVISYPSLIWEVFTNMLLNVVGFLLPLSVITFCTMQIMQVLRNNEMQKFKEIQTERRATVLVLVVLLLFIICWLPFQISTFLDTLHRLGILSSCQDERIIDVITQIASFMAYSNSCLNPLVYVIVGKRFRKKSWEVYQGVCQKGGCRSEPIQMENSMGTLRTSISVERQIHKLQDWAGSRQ
Protocol: as §1, §2

A3 (h) = molecular target: T7, A3 (h) (Homo sapiens, UniProt P0DMS8); conditions: for inhibition at 1 µM: read-out: % Inhibition at 1µM; for inhibition at 10 µM: read-out: % Inhibition at 10µM
T7 construct: purchased Cerep
T7 sequence (P0DMS8 1-318): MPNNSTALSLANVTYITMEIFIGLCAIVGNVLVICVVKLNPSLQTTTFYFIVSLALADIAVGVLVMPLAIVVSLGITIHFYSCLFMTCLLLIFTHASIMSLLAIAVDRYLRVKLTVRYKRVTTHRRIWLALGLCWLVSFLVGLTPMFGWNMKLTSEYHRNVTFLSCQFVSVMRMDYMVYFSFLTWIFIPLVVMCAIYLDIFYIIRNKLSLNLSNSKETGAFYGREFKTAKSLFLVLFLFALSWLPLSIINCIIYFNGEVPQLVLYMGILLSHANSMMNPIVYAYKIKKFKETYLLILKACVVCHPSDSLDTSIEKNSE
Protocol: as §1, §2

MC4 (h) = molecular target: T8, MC4 (h) (Homo sapiens, UniProt P32245); conditions: for inhibition at 10 µM: read-out: % Inhibition at 10µM; for inhibition at 1 µM: read-out: % Inhibition at 1µM
T8 construct: purchased Cerep
T8 sequence (P32245 whole entry): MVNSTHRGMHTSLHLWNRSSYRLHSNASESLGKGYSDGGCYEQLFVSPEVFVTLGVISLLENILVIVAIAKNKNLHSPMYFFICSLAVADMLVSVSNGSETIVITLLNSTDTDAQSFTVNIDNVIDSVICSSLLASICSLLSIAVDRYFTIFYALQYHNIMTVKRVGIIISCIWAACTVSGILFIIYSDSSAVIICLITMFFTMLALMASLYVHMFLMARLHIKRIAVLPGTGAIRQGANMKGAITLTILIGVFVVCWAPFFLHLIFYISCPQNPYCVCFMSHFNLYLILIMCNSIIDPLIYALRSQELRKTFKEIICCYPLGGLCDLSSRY
Protocol: as §1, §2

5HT2A (h) = molecular target: T9, 5HT2A (h) (Homo sapiens, UniProt P28223); conditions: read-out: % Inhibition at 10µM
T9 construct: purchased Cerep
T9 sequence (P28223 whole entry): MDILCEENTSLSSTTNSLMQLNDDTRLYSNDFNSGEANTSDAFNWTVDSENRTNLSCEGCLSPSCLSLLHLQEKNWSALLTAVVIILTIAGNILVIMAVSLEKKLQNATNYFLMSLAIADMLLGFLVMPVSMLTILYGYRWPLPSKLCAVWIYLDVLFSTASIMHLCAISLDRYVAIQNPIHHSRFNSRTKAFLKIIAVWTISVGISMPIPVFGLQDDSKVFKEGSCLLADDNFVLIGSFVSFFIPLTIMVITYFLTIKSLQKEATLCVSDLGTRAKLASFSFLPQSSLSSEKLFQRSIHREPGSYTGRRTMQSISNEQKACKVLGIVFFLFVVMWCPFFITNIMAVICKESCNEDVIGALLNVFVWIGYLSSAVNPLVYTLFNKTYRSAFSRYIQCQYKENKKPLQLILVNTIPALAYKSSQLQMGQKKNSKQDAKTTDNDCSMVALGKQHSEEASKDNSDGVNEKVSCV
Protocol: as §1, §2

NE-T = molecular target: T10, NE-T (Homo sapiens, UniProt P23975); conditions: for inhibition at 1 µM: read-out: % Inhibition at 1µM; for inhibition at 10 µM: read-out: % Inhibition at 10µM
T10 construct: purchased Cerep
T10 sequence (P23975 whole entry): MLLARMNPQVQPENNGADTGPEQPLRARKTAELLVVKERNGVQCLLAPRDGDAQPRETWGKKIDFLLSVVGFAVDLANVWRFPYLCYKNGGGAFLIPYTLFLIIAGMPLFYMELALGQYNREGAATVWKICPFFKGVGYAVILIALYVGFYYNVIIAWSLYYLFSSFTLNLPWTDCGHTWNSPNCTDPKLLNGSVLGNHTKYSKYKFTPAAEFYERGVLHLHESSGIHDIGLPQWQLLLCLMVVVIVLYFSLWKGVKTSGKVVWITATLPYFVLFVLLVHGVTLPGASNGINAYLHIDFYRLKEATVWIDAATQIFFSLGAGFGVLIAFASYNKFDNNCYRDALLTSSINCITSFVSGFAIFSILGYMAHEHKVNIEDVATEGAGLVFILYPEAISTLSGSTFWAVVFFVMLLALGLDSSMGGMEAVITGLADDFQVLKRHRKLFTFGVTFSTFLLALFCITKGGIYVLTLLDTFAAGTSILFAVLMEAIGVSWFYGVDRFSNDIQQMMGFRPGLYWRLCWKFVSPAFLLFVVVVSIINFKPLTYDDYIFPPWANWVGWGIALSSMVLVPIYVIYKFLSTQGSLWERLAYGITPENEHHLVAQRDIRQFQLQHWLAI
Protocol: as §1, §2

ORL1 (h) = molecular target: T11, ORL1 (h) (Homo sapiens, UniProt P41146); conditions: for inhibition at 1 µM: read-out: % Inhibition at 1µM; for inhibition at 10 µM: read-out: % Inhibition at 10µM
T11 construct: purchased Cerep
T11 sequence (P41146 whole entry): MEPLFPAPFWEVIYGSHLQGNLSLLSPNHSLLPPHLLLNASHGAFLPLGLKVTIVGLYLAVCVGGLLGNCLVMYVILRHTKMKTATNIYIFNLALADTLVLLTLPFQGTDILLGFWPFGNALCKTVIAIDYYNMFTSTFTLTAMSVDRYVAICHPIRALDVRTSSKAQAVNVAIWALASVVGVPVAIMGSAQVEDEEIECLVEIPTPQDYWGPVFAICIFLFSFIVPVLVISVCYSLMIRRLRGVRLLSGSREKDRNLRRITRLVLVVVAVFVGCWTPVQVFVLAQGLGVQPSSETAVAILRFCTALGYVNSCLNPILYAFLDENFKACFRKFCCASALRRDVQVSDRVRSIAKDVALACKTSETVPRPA
Protocol: as §1, §2

5HT2B (h) = molecular target: T12, 5HT2B (h) (Homo sapiens, UniProt P41595); conditions: for inhibition at 10 µM: read-out: % Inhibition at 10µM
T12 construct: purchased Cerep
T12 sequence (P41595 whole entry): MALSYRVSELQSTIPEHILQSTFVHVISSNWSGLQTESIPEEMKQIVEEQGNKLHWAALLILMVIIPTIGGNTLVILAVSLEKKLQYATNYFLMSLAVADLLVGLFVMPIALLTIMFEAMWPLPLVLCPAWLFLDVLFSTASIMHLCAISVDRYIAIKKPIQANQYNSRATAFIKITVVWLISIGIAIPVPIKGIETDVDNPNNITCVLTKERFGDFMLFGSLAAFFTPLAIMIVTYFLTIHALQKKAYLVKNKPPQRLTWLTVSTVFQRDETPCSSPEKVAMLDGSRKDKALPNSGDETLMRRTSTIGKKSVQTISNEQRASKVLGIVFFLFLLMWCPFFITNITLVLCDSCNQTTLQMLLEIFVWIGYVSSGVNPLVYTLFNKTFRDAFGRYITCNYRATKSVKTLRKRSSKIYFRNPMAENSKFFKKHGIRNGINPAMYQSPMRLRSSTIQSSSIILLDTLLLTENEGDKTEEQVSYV
Protocol: as §1, §2

A2A (h) = molecular target: T13, A2A (h) (Homo sapiens, UniProt P29274); conditions: for inhibition at 1 µM: read-out: % Inhibition at 1µM; for inhibition at 10 µM: read-out: % Inhibition at 10µM
T13 construct: purchased Cerep
T13 sequence (P29274 whole entry): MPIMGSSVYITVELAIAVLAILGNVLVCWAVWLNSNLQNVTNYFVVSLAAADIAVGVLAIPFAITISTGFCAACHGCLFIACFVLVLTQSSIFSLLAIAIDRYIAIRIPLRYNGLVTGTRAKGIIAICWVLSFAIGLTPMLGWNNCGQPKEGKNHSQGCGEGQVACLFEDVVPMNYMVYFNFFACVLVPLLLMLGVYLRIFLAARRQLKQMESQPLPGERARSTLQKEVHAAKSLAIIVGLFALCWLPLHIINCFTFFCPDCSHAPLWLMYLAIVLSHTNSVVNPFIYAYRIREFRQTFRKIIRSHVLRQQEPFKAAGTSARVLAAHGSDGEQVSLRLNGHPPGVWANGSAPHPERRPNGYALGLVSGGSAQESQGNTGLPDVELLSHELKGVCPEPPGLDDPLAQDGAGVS
Protocol: as §1, §2

CXCR2 (h) = molecular target: T14, CXCR2 (h) (Homo sapiens, UniProt P25025); conditions: read-out: % Inhibition at 10µM
T14 construct: purchased Cerep
T14 sequence (P25025 1-360): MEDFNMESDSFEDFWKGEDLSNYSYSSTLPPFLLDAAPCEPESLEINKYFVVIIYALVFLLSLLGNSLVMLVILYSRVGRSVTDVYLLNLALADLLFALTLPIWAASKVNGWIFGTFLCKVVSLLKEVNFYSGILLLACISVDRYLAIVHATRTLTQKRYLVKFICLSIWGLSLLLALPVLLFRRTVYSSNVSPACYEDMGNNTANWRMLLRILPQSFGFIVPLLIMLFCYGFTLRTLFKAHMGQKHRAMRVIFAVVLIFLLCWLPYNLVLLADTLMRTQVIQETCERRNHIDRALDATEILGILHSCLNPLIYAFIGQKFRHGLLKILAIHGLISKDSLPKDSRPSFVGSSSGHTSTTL
Protocol: as §1, §2

T1 sequence (P21728 whole entry): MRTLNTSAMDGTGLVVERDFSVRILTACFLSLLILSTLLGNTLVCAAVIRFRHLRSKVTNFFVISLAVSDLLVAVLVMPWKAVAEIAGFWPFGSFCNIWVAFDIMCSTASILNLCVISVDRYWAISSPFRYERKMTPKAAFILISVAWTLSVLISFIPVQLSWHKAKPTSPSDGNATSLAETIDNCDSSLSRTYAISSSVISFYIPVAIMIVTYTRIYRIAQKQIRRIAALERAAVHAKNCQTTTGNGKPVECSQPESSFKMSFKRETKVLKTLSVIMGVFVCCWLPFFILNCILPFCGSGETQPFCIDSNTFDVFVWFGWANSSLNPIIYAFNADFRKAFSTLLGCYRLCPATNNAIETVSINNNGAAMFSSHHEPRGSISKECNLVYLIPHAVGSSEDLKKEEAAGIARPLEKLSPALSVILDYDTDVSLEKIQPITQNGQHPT

COc1nc2ccc([C@](O)(c3ccc(Cl)cc3)c3cncn3C)cc2c(Cl)c1Cc1ccc(-n2cccn2)cc1 [B]
inhibition at 1 µM (D1 (h)): 10%
inhibition at 10 µM (D1 (h)): 29%
inhibition at 10 µM (H1 (h)): 2%
inhibition at 1 µM (OP1 (h)): 6%
inhibition at 10 µM (OP1 (h)): 2%
inhibition at 1 µM (5HT3 (h)): 16%
inhibition at 10 µM (5HT3 (h)): 19%
inhibition at 1 µM (V1 a (h); read-out: % Inhibition at 1µM): 10%
inhibition at 10 µM (V1 a (h)): 10%
inhibition at 1 µM (BK2 (h)): 9%
inhibition at 10 µM (BK2 (h)): 6%
inhibition at 1 µM (A3 (h)): 9%
inhibition at 10 µM (A3 (h)): 20%
inhibition at 10 µM (MC4 (h)): 6%
inhibition at 10 µM (5HT2A (h)): 12%
inhibition at 1 µM (NE-T): 21%
inhibition at 10 µM (NE-T): 38%
inhibition at 1 µM (ORL1 (h)): 6%
inhibition at 10 µM (ORL1 (h)): 4%

COc1nc2ccc([C@@](O)(c3ccccc3)C3CCN(C(C)=O)CC3)cc2c(Cl)c1Cc1ccc(-n2cccn2)cc1 [C]
inhibition at 10 µM (D1 (h)): 11%
inhibition at 1 µM (H1 (h); read-out: % Inhibition at 1µM): 10%
inhibition at 1 µM (5HT2B (h); read-out: % Inhibition at 1µM): 17.5%
inhibition at 10 µM (5HT2B (h)): 1%
inhibition at 1 µM (OP1 (h)): 9%
inhibition at 10 µM (OP1 (h)): 11%
inhibition at 10 µM (5HT3 (h)): 18%
inhibition at 1 µM (A3 (h)): 16%
inhibition at 10 µM (A3 (h)): 41%
inhibition at 1 µM (MC4 (h)): 14%
inhibition at 1 µM (A2A (h)): 18%
inhibition at 10 µM (A2A (h)): 21%
inhibition at 10 µM (CXCR2 (h)): 10%
inhibition at 1 µM (NE-T): 19%
inhibition at 10 µM (NE-T): 38%

COc1nc2ccc([C@@](O)(c3ccc(C)nc3C)c3cnnn3C)cc2c(Cl)c1Cc1ccc(C(F)(F)F)cc1 [compound A]
inhibition at 1 µM (D1 (h); D1 (h), 1 µM): 16%
inhibition at 10 µM (D1 (h); D1 (h), 10 µM): 48%
inhibition at 10 µM (H1 (h); H1 (h), 10 µM): 8%
inhibition at 10 µM (5HT2B (h); 5HT2B (h), 10 µM): 43%
inhibition at 1 µM (OP1 (h); OP1 (h), 1 µM): 9%
inhibition at 10 µM (OP1 (h); OP1 (h), 10 µM): 27%
inhibition at 1 µM (5HT3 (h); 5HT3 (h), 1 µM): 7%
inhibition at 10 µM (5HT3 (h); 5HT3 (h), 10 µM): 29%
inhibition at 10 µM (V1 a (h); V1 a (h), 10 µM): 19%
inhibition at 1 µM (BK2 (h); BK2 (h), 1 µM): 6%
inhibition at 1 µM (A3 (h); A3 (h), 1 µM): 49%
inhibition at 10 µM (A3 (h); A3 (h), 10 µM): 92%
inhibition at 10 µM (MC4 (h); MC4 (h), 10 µM): 9%
inhibition at 1 µM (A2A (h); A2A (h), 1 µM): 20%
inhibition at 10 µM (A2A (h); A2A (h), 10 µM): 5%
inhibition at 10 µM (CXCR2 (h); CXCR2 (h), 10 µM): 12%
inhibition at 10 µM (5HT2A (h); 5HT2A (h), 10 µM): 27%
inhibition at 1 µM (NE-T; NE-T, 1 µM): 44%
inhibition at 10 µM (NE-T; NE-T, 10 µM): 86%
inhibition at 1 µM (ORL1 (h); ORL1 (h), 1 µM): 1%
inhibition at 10 µM (ORL1 (h); ORL1 (h), 10 µM): 10%

CN(C)c1nc2ccc(C(O)(c3ccncc3)c3cncn3C)cc2c(Cl)c1-c1ccccc1 (stereo not shown) [compound D]
inhibition at 10 µM (D1 (h)): 40%
inhibition at 10 µM (H1 (h)): 27%
inhibition at 10 µM (5HT2B (h)): 106%
inhibition at 10 µM (OP1 (h)): 36%
inhibition at 1 µM (5HT3 (h)): 8%
inhibition at 10 µM (5HT3 (h)): 17%
inhibition at 10 µM (V1 a (h)): 12%
inhibition at 10 µM (BK2 (h)): 10%
inhibition at 10 µM (A3 (h)): 67%
inhibition at 1 µM (MC4 (h)): 3%
inhibition at 10 µM (MC4 (h)): 25%
inhibition at 1 µM (A2A (h)): 2%
inhibition at 10 µM (A2A (h)): 43%
inhibition at 10 µM (CXCR2 (h)): 17%
inhibition at 10 µM (5HT2A (h)): 22%
inhibition at 1 µM (NE-T): 5%
inhibition at 10 µM (NE-T): 76%
inhibition at 1 µM (ORL1 (h)): 5%
